Reference: patent USRE37793E1, “Method and composition for inhibiting bacteria” (Winthrop University Hospital, priority 1995, dated 2002)

Assays:
[1] = test system: gut flora; experiment: Effect on gut flora and fecal production; set-up: species or system rats; conditions: rat, in vivo
[2] = test system: Klebsiella pneumoniae; assay type: cell-based
[3] = test system: bacteria; assay type: cell-based
[4] = test system: methicillin-resistant S. aureus (MRSA); experiment: Agar diffusion, zones of inhibition; assay type: cell-based, Staphylococcus aureus; conditions: MRSA (27 isolates); discs Bi(No3)3 157 μg, BAL 186 μg, BisBAL 157/31 μg; 24 h, 37° C.
[5] = test system: bacteria; experiment: Effect of cations (iron, copper) in culture medium on antibacterial activity; assay type: cell-based; conditions: iron added to culture medium
Method: Oxygen tension effects were determined by agar diffusion in aerobic, microaerophilic (Candle jar), and anaerobic (GasPak) conditions. […] Other amounts and ratios were tested. Culture condition effects, such as pH or temperature were evaluated in broth mediums.
Therefore, these antagonists could be used to neutralize BisBAL when necessary.

[6] = test system: E. coli and Salmonella; conditions: lag time and 18 hour turbidity only marginally affected
[7] = test system: V.cholerae, S.flexneri, and Y.enterocolitica
[8] = test system: vancomycin-resistant enterococci (VRE); assay type: cell-based
[9] = test system: Helicobacter pylori; assay type: cell-based

## O=C([O-])c1ccccc1[O-].[Bi+3].[OH-] [BSS]
[1]
  Effect on gut flora: does not have a significant growth-inhibiting effect

## [H]/N=C(\N/C(=N/[H])NCCCCCCNC(=N)NC(=N)Nc1ccc(Cl)cc1)Nc1ccc(Cl)cc1 [CHX, chlorhexidine]
[2]; even at 0.75 of the MIC
  Effect on CPS expression: no significant effect

## O=S(=O)(O)CC(S)CS (stereo not drawn) [DMPS, 2,3-dimercaptopropane-1-sulfonic acid]
[3]
  Effect of thiol-containing chelator on antibacterial properties of bismuth: do not increase its antibacterial properties

## O=C(O)[C@@H](S)[C@@H](S)C(=O)O [DMSA, dimercapto-succinic acid]
[3]
  Effect of thiol-containing chelator on antibacterial properties of bismuth: do not increase its antibacterial properties

## N[C@@H](CS)C(=O)O [cysteine]
[3]
  Effect of thiol-containing chelator on antibacterial properties of bismuth: do not increase its antibacterial properties

## bismuth nitrate [Bi(NO3)3]
[2]; subinhibitory levels
  Concentration at which capsule and slime expression is inhibited: greater than 500 μM
[4]
  Zones of Inhibition: 7.3 ± 2.8 mm
[5]
  Reversal of antibacterial effects by iron: can be reversed by addition of micromolar amounts of iron
[6]
  Bi^3+ concentration in whose presence bacteria grew well: 250 to 500 µM
[7]
  Bi^3+ concentration bacteria could withstand: up to 50 μM
[8]
  Zones of Inhibition: 7.3 ± 1.4 mm
[9]
  Zone diameter of inhibition: little or no zones of inhibition
